{"source": "paper PMC7673538", "about": "(PLoS Biology, 2020)", "key": {"[1]": {"system": "EV-A71", "assay": "microbe, parasite or virus in culture", "assay_type": "cell-based, enterovirus A71", "settings": "Enterovirus A"}, "[2]": {"system": "CV-B3", "assay": "microbe, parasite or virus in culture", "assay_type": "cell-based, coxsackievirus B3", "settings": "for EC50: Enterovirus B"}, "[3]": {"system": "PV-1", "assay": "microbe, parasite or virus in culture", "assay_type": "cell-based, poliovirus 1", "settings": "Enterovirus C, HeLa R19, read-out: EC50 PV-1"}, "[4]": {"system": "CV-A24", "assay": "microbe, parasite or virus in culture", "assay_type": "cell-based, coxsackievirus A24", "settings": "Enterovirus C, CVA24, HeLa R19, read-out: EC50 CV-A24"}, "[5]": {"system": "EV-D68", "assay": "microbe, parasite or virus in culture", "assay_type": "cell-based, enterovirus D68", "settings": "for EC50: Enterovirus D"}, "[6]": {"system": "HRV-A2", "assay": "microbe, parasite or virus in culture", "assay_type": "cell-based, human rhinovirus", "settings": "for EC50: Human rhinovirus sp., HRVA2, HeLa R19, read-out: EC50 HRV-A2"}, "[7]": {"system": "HRV-B14", "assay": "microbe, parasite or virus in culture", "assay_type": "cell-based, human rhinovirus", "settings": "for EC50: Human rhinovirus sp., HRVB14, HeLa R19, read-out: EC50 HRV-B14"}, "[8]": {"system": "CV-B3", "assay": "microbe, parasite or virus in culture", "assay_type": "cell-based, coxsackievirus B3", "settings": "Enterovirus B"}, "[9]": {"system": "CV-B3", "assay": "microbe, parasite or virus in culture", "assay_type": "cell-based, coxsackievirus B3", "settings": "Enterovirus B, CVB3, BGM"}, "[10]": {"system": "HeLa R19 cells"}, "[11]": {"assay": "in vitro", "settings": "human"}, "[12]": {"assay": "in vitro", "settings": "human", "remark": "listed apart in the source"}, "[13]": {"assay": "in vitro", "settings": "monkey"}, "[14]": {"system": "representative EVs and RVs", "assay_type": "cell-based"}, "[15]": {"settings": "EVA71, HeLa R19, read-out: EC50 EV-A71"}, "[16]": {"settings": "CVB3, HeLa R19, read-out: CV-B3 EC50 Average"}, "[17]": {"settings": "CVB3, HeLa R19, read-out: CV-B3 Exp 1 EC50"}, "[18]": {"settings": "CVB3, HeLa R19, read-out: CV-B3 Exp2 EC50"}, "[19]": {"settings": "CVB3, HeLa R19, read-out: EC50 HelaR19 Average"}, "[20]": {"settings": "CVB3, HeLa R19, read-out: Exp 1 EC50 HelaR19"}, "[21]": {"settings": "CVB3, HeLa R19, read-out: Exp 2 EC50 HelaR19"}, "[22]": {"settings": "EVD68, HeLa R19, read-out: EC50 EV-D68"}, "[23]": {"settings": "EVD68, HeLa R19, read-out: EC50 Exp1"}, "[24]": {"settings": "EVD68, HeLa R19, read-out: EC50 Exp2"}, "[25]": {"settings": "CVB3, HAP1, read-out: EC50 Hap1 Average"}, "[26]": {"settings": "CVB3, HAP1, read-out: Exp 2 EC50 Hap1"}}, "note": "Where two headings read alike, the source gives them in different places."}
{"compound": "O=C(c1ccco1)N(Cc1ccccc1)c1ccc(C(F)(F)F)cc1", "note": "[Compound 19i, N-benzyl-N-(4-(trifluoromethyl)phenyl)furan-2-carboxamide]", "values": [{"measurement": "EC50", "setting": "[1]; [15]", "result": "> 30", "unit": "µM"}, {"measurement": "effect of the substitution on antiviral activity against CV-B3 (in words)", "setting": "[2]", "result": "had little effect"}, {"measurement": "EC50", "setting": "[2]; CVB3, HeLa", "result": "2.75 ± 0.25", "unit": "µM"}, {"measurement": "EC50", "setting": "[2]; [16]", "result": 2.45, "unit": "µM"}, {"measurement": "EC50", "setting": "[2]; [17]", "result": 2.35, "unit": "µM"}, {"measurement": "EC50", "setting": "[2]; [18]", "result": 2.55, "unit": "µM"}, {"measurement": "EC50", "setting": "[2]; [19]", "result": 2.78, "unit": "µM"}, {"measurement": "EC50", "setting": "[2]; [20]", "result": 2.52, "unit": "µM"}, {"measurement": "EC50", "setting": "[2]; [21]", "result": 3.03, "unit": "µM"}, {"measurement": "EC50", "setting": "[3]", "result": "> 30", "unit": "µM"}, {"measurement": "EC50", "setting": "[4]", "result": "> 30", "unit": "µM"}, {"measurement": "EC50", "setting": "[5]; [22]", "result": "3.35 ± 0.19", "unit": "µM"}, {"measurement": "EC50", "setting": "[5]; [23]", "result": 3.16, "unit": "µM"}, {"measurement": "EC50", "setting": "[5]; [24]", "result": 3.54, "unit": "µM"}, {"measurement": "EC50", "setting": "[6]", "result": "> 30", "unit": "µM"}, {"measurement": "EC50", "setting": "[7]", "result": "> 30", "unit": "µM"}, {"measurement": "EC50", "setting": "[8]; CVB3, HAP1", "result": "1.75 ± 0.29", "unit": "µM"}, {"measurement": "EC50", "setting": "[8]; [25]", "result": 1.74, "unit": "µM"}, {"measurement": "EC50", "setting": "[8]; [26]", "result": 2.03, "unit": "µM"}, {"measurement": "EC50", "setting": "[9]; read-out: EC50 BGM Average", "result": 1.71, "unit": "µM"}, {"measurement": "EC50", "setting": "[9]; read-out: Exp 1 EC50 BGM", "result": 1.42, "unit": "µM"}, {"measurement": "EC50", "setting": "[9]; read-out: Exp 2 EC50 BGM", "result": 1.99, "unit": "µM"}, {"measurement": "cytotoxicity (in words)", "setting": "[10]; human, monkey", "result": "cytotoxicity in a similar range as the parental compound 1"}, {"measurement": "CC50", "setting": "[11]; CC50 Average", "result": "> 30", "unit": "µM"}, {"measurement": "CC50", "setting": "[11]; CC50 HelaR19 Average", "result": 68.5, "unit": "µM"}, {"measurement": "CC50", "setting": "[11]; Exp 1 CC50", "result": "> 30", "unit": "µM"}, {"measurement": "CC50", "setting": "[11]; Exp 1 CC50 HelaR19", "result": 68, "unit": "µM"}, {"measurement": "CC50", "setting": "[11]; Exp2 CC50", "result": "> 30", "unit": "µM"}, {"measurement": "CC50", "setting": "[11]; Exp 2 CC50 HelaR19", "result": 69, "unit": "µM"}, {"measurement": "CC50", "setting": "[12]; CC50", "result": "> 100", "unit": "µM"}, {"measurement": "CC50", "setting": "[12]; CC50 Hap1 Average", "result": "> 100", "unit": "µM"}, {"measurement": "CC50", "setting": "[12]; Exp 1 CC50 Hap1", "result": "> 100", "unit": "µM"}, {"measurement": "CC50", "setting": "[12]; Exp 2 CC50 Hap1", "result": "> 100", "unit": "µM"}, {"measurement": "CC50", "setting": "[13]; CC50", "result": "55.4 ± 0.05", "unit": "µM"}, {"measurement": "CC50", "setting": "[13]; CC50 BGM Average", "result": 55.4, "unit": "µM"}, {"measurement": "CC50", "setting": "[13]; Exp 1 CC50 BGM", "result": 55.3, "unit": "µM"}, {"measurement": "CC50", "setting": "[13]; Exp 2 CC50 BGM", "result": 55.5, "unit": "µM"}]}
{"compound": "O=C(c1ccc[nH]1)N(Cc1ccc(C(F)(F)F)cc1)c1ccccc1", "note": "[Compound 22, N-Phenyl-N-(4-(trifluoromethyl)benzyl)-1H-pyrrole-2-carboxamide]", "values": [{"measurement": "EC50", "setting": "[1]; [15]", "result": "1.27 ± 0.49", "unit": "µM"}, {"measurement": "EC50", "setting": "[1]; EVA71, HeLa R19, read-out: EC50 Exp1", "result": 0.78, "unit": "µM"}, {"measurement": "EC50", "setting": "[1]; EVA71, HeLa R19, read-out: EC50 Exp2", "result": 1.76, "unit": "µM"}, {"measurement": "effect of the substitution on antiviral activity against CV-B3 (in words)", "setting": "[2]", "result": "little, if any, effect on antiviral activity"}, {"measurement": "EC50", "setting": "[2]; [16]", "result": 1.5, "unit": "µM"}, {"measurement": "EC50", "setting": "[2]; [17]", "result": 1.42, "unit": "µM"}, {"measurement": "EC50", "setting": "[2]; [18]", "result": 1.58, "unit": "µM"}, {"measurement": "EC50", "setting": "[2]; [19]", "result": 2.6, "unit": "µM"}, {"measurement": "EC50", "setting": "[2]; [20]", "result": 2.69, "unit": "µM"}, {"measurement": "EC50", "setting": "[2]; [21]", "result": 2.51, "unit": "µM"}, {"measurement": "EC50", "setting": "[3]", "result": "> 30", "unit": "µM"}, {"measurement": "EC50", "setting": "[4]", "result": "> 30", "unit": "µM"}, {"measurement": "EC50", "setting": "[5]; [22]", "result": "12.4 ± 0.81", "unit": "µM"}, {"measurement": "EC50", "setting": "[5]; [23]", "result": 11.6, "unit": "µM"}, {"measurement": "EC50", "setting": "[5]; [24]", "result": 13.2, "unit": "µM"}, {"measurement": "EC50", "setting": "[6]", "result": "> 30", "unit": "µM"}, {"measurement": "EC50", "setting": "[7]", "result": "> 30", "unit": "µM"}, {"measurement": "EC50", "setting": "[8]; [25]", "result": 2.69, "unit": "µM"}, {"measurement": "EC50", "setting": "[8]; CVB3, HAP1, read-out: Exp 1 EC50 Hap1", "result": 2.5, "unit": "µM"}, {"measurement": "EC50", "setting": "[8]; [26]", "result": 2.87, "unit": "µM"}, {"measurement": "EC50", "setting": "[9]; read-out: EC50 BGM Average", "result": 2.28, "unit": "µM"}, {"measurement": "EC50", "setting": "[9]; read-out: Exp 1 EC50 BGM", "result": 2.55, "unit": "µM"}, {"measurement": "EC50", "setting": "[9]; read-out: Exp 2 EC50 BGM", "result": 2.01, "unit": "µM"}, {"measurement": "cytotoxicity (in words)", "setting": "[10]", "result": "did not show any cytotoxicity"}, {"measurement": "CC50", "setting": "[11]; CC50 Average", "result": "> 30", "unit": "µM"}, {"measurement": "CC50", "setting": "[11]; CC50 HelaR19 Average", "result": "> 100", "unit": "µM"}, {"measurement": "CC50", "setting": "[11]; Exp 1 CC50", "result": "> 30", "unit": "µM"}, {"measurement": "CC50", "setting": "[11]; Exp 1 CC50 HelaR19", "result": "> 100", "unit": "µM"}, {"measurement": "CC50", "setting": "[11]; Exp2 CC50", "result": "> 30", "unit": "µM"}, {"measurement": "CC50", "setting": "[11]; Exp 2 CC50 HelaR19", "result": "> 100", "unit": "µM"}, {"measurement": "CC50", "setting": "[12]; CC50", "result": "> 100", "unit": "µM"}, {"measurement": "CC50", "setting": "[12]; CC50 Hap1 Average", "result": "> 100", "unit": "µM"}, {"measurement": "CC50", "setting": "[12]; Exp 1 CC50 Hap1", "result": "> 100", "unit": "µM"}, {"measurement": "CC50", "setting": "[12]; Exp 2 CC50 Hap1", "result": "> 100", "unit": "µM"}, {"measurement": "CC50", "setting": "[13]; CC50", "result": "> 100", "unit": "µM"}, {"measurement": "CC50", "setting": "[13]; CC50 BGM Average", "result": "> 100", "unit": "µM"}, {"measurement": "CC50", "setting": "[13]; Exp 1 CC50 BGM", "result": "> 100", "unit": "µM"}, {"measurement": "CC50", "setting": "[13]; Exp 2 CC50 BGM", "result": "> 100", "unit": "µM"}]}
{"compound": "(S)-fluoxetine [reference compound]", "values": [{"measurement": "antiviral activity against CV-B3 (in words)", "setting": "[2]", "result": "inhibited"}, {"measurement": "cross-resistance of 19d-resistant CV-B3 virus pools (in words)", "setting": "[2]", "result": "cross-resistant"}, {"measurement": "cross-resistance of 19d-resistant EV-D68 virus pools (in words)", "setting": "[5]", "result": "cross-resistance"}, {"measurement": "inhibition of EV-D68 replication (in words)", "setting": "[5]", "result": "inhibited"}, {"measurement": "inhibition of HRV-A2 replication (in words)", "setting": "[6]", "result": "inhibited"}, {"measurement": "inhibition of HRV-B14 replication (in words)", "setting": "[7]", "result": "inhibited"}, {"measurement": "inhibition of contemporary/clinical isolates of EV-A71, CV-A24v and EV-D68 (in words)", "setting": "[14]", "result": "inhibited contemporary strains of EV-D68 and some, but not all, contemporary EV-A71 strains"}]}
